Source: ChEMBL document CHEMBL5715260, “Selectivity Literature for EUbOPEN Chemogenomic Library” (2024)

Experiments:
[1] = target: T1, Hepatocyte nuclear factor 4-alpha (Homo sapiens) (UniProt P41235); experiment: Selectivity interaction (Reporter gene assay) EUB0002358a HNF4A; design: recommended concentration 10 uM
T1 sequence (whole entry): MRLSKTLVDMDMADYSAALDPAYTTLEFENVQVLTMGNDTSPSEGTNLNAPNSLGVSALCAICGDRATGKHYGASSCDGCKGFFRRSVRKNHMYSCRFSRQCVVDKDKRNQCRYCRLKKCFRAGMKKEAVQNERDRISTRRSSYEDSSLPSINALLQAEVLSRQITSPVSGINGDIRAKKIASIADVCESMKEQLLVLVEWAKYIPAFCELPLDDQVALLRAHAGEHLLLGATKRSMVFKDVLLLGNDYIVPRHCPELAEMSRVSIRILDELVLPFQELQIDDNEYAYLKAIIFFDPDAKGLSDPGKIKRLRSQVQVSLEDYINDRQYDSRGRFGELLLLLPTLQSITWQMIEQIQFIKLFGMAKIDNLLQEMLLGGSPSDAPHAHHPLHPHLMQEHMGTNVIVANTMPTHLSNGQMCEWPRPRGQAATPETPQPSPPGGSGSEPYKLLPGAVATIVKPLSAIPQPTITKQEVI

[2] = target: T2, Nuclear receptor subfamily 2 group C member 1 (Homo sapiens) (UniProt P13056); experiment: Selectivity interaction (Reporter gene assay) EUB0002358a NR2C1; design: recommended concentration 10 uM
T2 sequence (whole entry): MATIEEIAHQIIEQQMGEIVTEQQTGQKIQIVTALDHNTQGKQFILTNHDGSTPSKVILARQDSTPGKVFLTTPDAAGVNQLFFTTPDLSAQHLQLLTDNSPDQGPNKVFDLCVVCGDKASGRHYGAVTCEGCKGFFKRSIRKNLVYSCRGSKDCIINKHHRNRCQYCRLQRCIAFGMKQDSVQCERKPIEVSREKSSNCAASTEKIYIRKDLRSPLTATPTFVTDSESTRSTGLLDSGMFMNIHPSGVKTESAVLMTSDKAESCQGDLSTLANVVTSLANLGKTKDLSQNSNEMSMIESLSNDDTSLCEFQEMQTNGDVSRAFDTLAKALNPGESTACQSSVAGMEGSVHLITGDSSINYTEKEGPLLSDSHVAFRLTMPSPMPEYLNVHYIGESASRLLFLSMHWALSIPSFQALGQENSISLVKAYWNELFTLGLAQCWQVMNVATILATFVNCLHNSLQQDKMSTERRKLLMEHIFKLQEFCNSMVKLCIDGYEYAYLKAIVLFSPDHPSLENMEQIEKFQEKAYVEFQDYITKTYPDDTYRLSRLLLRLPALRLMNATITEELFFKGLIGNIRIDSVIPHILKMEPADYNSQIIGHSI

[3] = target: Nuclear receptor subfamily 2 group E member 1 (Homo sapiens) (UniProt Q9Y466); experiment: Selectivity interaction (Reporter gene assay) EUB0002358a NR2E1; design: recommended concentration 10 uM
[4] = target: Nuclear receptor subfamily 4immunitygroup A member 1 (Homo sapiens) (UniProt P22736); experiment: Selectivity interaction (Reporter gene assay) EUB0002358a NR4A1; design: recommended concentration 10 uM
[5] = target: T3, Retinoic acid receptor RXR-alpha (Homo sapiens) (UniProt P19793); experiment: Selectivity interaction (Reporter gene assay) EUB0002358a RXRA; design: recommended concentration 10 uM; details: reference bexarotene 1 uM, Selectivity number of off-targets 0.0, Selectivity number of targets 1.0, Source Knowledge inhouse
T3 sequence (whole entry): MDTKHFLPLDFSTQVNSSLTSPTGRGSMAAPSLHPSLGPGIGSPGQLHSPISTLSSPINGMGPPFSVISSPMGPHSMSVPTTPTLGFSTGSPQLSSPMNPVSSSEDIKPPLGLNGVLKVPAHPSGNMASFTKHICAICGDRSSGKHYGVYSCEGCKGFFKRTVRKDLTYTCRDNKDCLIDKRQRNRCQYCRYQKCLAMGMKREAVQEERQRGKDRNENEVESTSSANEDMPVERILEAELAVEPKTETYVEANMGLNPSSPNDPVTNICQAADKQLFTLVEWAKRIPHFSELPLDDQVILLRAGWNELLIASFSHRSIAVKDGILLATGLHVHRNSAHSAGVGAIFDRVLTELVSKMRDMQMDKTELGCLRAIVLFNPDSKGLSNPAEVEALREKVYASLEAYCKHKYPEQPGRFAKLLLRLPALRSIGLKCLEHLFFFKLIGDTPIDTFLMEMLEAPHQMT

[6] = target: Steroidogenic factor 1 (Homo sapiens) (UniProt Q13285); experiment: Selectivity interaction (Reporter gene assay) EUB0002358a NR5A1; design: recommended concentration 10 uM
[7] = target: T4, Alpha trans-inducing protein (Human alphaherpesvirus 1) (UniProt A0A5J6DW59); experiment: Selectivity interaction (Reporter gene assay) EUB0002358a UL48; design: recommended concentration 10 uM
[8] = target: T1, Hepatocyte nuclear factor 4-alpha (Homo sapiens); experiment: Selectivity interaction (Reporter gene assay) EUB0000082b HNF4A; design: recommended concentration 3 uM
[9] = target: T2, Nuclear receptor subfamily 2 group C member 1 (Homo sapiens); experiment: Selectivity interaction (Reporter gene assay) EUB0000082b NR2C1; design: recommended concentration 3 uM
[10] = target: Steroidogenic factor 1 (Homo sapiens) (UniProt Q13285); experiment: Selectivity interaction (Reporter gene assay) EUB0000082b NR5A1; design: recommended concentration 3 uM
[11] = target: T3, Retinoic acid receptor RXR-alpha (Homo sapiens); experiment: Selectivity interaction (Reporter gene assay) EUB0000082b RXRA; design: recommended concentration 3 uM; details: reference bexarotene 1 uM, Selectivity number of off-targets 0.0, Selectivity number of targets 1.0, Source Knowledge inhouse
[12] = target: Nuclear receptor subfamily 2 group E member 1 (Homo sapiens) (UniProt Q9Y466); experiment: Selectivity interaction (Reporter gene assay) EUB0000082b NR2E1; design: recommended concentration 3 uM; details: screened at recom. conc., Selectivity number of off-targets 2.0, Selectivity number of targets 5.0, Source Knowledge inhouse
[13] = target: T4, Alpha trans-inducing protein (Human alphaherpesvirus 1); experiment: Selectivity interaction (Reporter gene assay) EUB0000082b UL48; design: recommended concentration 3 uM
[14] = target: Nuclear receptor subfamily 4immunitygroup A member 1 (Homo sapiens) (UniProt P22736); experiment: Selectivity interaction (Reporter gene assay) EUB0000082b NR4A1; design: recommended concentration 3 uM
[15] = target: NR1I2 (nuclear receptor subfamily 1 group I member 2, PXR) (Homo sapiens, UniProt O75469); experiment: Selectivity interaction (Reporter gene assay) EUB0000082b NR1I2; design: recommended concentration 3 uM; details: read-out: Fold activation
[16] = target: Nuclear receptor subfamily 4immunitygroup A member 1 (Homo sapiens) (UniProt P22736); experiment: Selectivity interaction (Reporter gene assay) EUB0002359a NR4A1; design: recommended concentration 1 uM
[17] = target: T4, Alpha trans-inducing protein (Human alphaherpesvirus 1); experiment: Selectivity interaction (Reporter gene assay) EUB0002359a UL48; design: recommended concentration 1 uM
[18] = target: T3, Retinoic acid receptor RXR-alpha (Homo sapiens); experiment: Selectivity interaction (Reporter gene assay) EUB0002359a RXRA; design: recommended concentration 1 uM; details: reference bexarotene 1 uM, Selectivity number of off-targets 0.0, Selectivity number of targets 1.0, Source Knowledge inhouse
[19] = target: Steroidogenic factor 1 (Homo sapiens) (UniProt Q13285); experiment: Selectivity interaction (Reporter gene assay) EUB0002359a NR5A1; design: recommended concentration 1 uM
[20] = target: Nuclear receptor subfamily 2 group E member 1 (Homo sapiens) (UniProt Q9Y466); experiment: Selectivity interaction (Reporter gene assay) EUB0002359a NR2E1; design: recommended concentration 1 uM
[21] = target: T2, Nuclear receptor subfamily 2 group C member 1 (Homo sapiens); experiment: Selectivity interaction (Reporter gene assay) EUB0002359a NR2C1; design: recommended concentration 1 uM
[22] = target: T1, Hepatocyte nuclear factor 4-alpha (Homo sapiens); experiment: Selectivity interaction (Reporter gene assay) EUB0002359a HNF4A; design: recommended concentration 1 uM
[23] = target: cGMP-specific 3',5'-cyclic phosphodiesterase (Homo sapiens) (UniProt O76074); experiment: Selectivity interaction (Enzymatic assay) EUB0002694a PDE5A; design: recommended concentration 1 uM; details: at 10 µM
[24] = target: cAMP and cAMP-inhibited cGMP 3',5'-cyclic phosphodiesterase 10A (Homo sapiens) (UniProt Q9Y233); experiment: Selectivity interaction (Enzymatic assay) EUB0002694a PDE10A; design: recommended concentration 1 uM; details: at 10 µM
Chain of cAMP and cAMP-inhibited cGMP 3',5'-cyclic phosphodiesterase 10A (Homo sapiens) (Q9Y233 whole entry): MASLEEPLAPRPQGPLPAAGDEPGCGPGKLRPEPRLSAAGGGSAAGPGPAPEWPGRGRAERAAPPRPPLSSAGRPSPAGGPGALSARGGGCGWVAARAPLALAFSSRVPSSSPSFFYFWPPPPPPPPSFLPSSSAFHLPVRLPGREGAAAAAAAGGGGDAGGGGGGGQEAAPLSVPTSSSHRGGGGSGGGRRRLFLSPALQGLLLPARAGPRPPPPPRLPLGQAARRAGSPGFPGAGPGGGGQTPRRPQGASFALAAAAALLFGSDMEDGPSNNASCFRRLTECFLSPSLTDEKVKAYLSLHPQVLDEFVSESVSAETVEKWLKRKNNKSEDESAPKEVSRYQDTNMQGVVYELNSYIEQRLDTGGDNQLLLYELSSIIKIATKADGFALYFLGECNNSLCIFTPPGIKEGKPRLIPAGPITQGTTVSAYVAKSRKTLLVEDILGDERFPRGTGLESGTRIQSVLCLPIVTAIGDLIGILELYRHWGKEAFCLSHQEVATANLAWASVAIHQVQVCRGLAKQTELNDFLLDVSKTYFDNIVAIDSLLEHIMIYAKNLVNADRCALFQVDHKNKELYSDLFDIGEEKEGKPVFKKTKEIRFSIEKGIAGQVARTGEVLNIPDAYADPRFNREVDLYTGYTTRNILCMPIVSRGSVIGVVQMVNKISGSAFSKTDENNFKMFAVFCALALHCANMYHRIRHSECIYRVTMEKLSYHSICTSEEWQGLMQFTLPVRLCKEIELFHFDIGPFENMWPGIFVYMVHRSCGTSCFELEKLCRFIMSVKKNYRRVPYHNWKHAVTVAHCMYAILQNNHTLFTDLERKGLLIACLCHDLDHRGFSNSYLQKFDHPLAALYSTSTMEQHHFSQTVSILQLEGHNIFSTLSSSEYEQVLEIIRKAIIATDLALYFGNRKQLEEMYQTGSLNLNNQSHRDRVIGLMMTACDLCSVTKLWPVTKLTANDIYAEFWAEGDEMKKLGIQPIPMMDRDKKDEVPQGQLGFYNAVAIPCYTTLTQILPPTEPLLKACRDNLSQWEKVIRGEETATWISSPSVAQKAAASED

Chain of Nuclear receptor subfamily 2 group E member 1 (Homo sapiens) (Q9Y466 whole entry): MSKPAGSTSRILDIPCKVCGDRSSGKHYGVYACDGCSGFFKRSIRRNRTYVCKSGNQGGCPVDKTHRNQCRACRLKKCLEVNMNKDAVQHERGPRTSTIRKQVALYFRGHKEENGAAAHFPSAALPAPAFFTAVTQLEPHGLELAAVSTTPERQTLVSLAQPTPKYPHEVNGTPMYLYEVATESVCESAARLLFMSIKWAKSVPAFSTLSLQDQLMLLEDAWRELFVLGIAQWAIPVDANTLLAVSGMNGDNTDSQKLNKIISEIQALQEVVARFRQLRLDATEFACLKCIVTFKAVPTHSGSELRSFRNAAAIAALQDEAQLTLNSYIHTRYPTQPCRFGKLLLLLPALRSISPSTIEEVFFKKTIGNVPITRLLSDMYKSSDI
Chain of Nuclear receptor subfamily 4immunitygroup A member 1 (Homo sapiens) (P22736 whole entry): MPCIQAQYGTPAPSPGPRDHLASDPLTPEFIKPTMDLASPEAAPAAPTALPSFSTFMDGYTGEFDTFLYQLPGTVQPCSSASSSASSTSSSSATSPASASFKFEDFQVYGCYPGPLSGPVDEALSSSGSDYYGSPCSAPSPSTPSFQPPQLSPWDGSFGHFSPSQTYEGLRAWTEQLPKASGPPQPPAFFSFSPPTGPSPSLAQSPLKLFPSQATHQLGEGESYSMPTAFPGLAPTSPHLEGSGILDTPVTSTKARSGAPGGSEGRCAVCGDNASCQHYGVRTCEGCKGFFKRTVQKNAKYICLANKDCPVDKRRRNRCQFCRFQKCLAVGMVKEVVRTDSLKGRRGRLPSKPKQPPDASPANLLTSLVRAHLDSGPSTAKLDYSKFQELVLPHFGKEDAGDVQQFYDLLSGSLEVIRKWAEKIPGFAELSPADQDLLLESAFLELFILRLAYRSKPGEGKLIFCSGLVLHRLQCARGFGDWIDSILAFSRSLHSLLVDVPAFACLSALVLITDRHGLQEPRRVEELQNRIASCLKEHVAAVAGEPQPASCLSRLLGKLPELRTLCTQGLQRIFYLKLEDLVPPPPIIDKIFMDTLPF
Chain of Steroidogenic factor 1 (Homo sapiens) (Q13285 whole entry): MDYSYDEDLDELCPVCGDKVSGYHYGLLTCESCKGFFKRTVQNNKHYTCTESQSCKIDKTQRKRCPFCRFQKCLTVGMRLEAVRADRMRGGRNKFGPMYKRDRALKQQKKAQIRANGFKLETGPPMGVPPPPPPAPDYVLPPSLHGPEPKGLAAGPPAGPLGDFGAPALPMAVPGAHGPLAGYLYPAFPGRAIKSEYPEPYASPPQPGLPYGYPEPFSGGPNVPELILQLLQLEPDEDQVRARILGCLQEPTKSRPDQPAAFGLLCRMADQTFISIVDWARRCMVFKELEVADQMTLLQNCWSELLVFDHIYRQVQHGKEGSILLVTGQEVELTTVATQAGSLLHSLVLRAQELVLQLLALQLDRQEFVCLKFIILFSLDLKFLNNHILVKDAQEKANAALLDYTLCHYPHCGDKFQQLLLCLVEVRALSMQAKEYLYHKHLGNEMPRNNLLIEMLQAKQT
T4 sequence (A0A5J6DW59 as listed by the source): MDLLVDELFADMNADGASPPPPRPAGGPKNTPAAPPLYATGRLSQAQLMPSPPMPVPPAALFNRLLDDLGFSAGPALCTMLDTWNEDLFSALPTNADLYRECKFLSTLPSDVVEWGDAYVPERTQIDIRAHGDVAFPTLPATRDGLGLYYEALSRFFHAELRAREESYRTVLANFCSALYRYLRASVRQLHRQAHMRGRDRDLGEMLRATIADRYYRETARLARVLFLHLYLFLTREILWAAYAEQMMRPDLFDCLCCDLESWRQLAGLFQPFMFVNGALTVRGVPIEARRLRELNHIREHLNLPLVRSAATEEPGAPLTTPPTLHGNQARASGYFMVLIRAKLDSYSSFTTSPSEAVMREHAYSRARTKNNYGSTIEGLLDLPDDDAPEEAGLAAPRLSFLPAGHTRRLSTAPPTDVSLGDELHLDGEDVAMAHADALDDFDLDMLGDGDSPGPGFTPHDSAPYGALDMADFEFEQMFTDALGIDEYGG
Chain of NR1I2 (nuclear receptor subfamily 1 group I member 2, PXR) (O75469 whole entry): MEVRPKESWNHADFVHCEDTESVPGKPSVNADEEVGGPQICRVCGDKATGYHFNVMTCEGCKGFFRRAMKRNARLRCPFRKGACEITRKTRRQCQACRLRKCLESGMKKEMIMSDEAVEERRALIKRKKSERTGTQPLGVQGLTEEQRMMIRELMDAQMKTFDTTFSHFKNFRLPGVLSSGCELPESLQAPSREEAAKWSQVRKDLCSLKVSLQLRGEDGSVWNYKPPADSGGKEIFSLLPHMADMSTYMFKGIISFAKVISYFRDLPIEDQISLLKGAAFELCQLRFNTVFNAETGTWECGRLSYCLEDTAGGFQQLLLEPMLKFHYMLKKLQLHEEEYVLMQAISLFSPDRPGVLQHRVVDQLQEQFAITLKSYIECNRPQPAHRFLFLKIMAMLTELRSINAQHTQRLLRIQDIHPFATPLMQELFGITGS

`O=c1[nH]c2ccccc2n1CCCN1CCN(C(c2ccccc2)c2ccccc2)CC1` gave a Fold activation [1] of 0.736, a Fold activation [2] of 0.803 and a Fold activation [3] of 0.661. The Fold activation [4] was 1.16, the Relative activation [5] was 0.76% and the Remaining activity [6] was 1.07. It also gave a P-value [7] of 6e-08.
In the case of `Fc1ccc(-c2c3cccc(C(F)(F)F)c3nn2Cc2ccc(F)cc2Cl)cc1` [LXR-623], the Fold activation [8] is reported as 0.867, the Fold activation [9] is reported as 1.63 and the Remaining activity [10] is reported as 0.876. For the same molecule, the Relative activation [11] was 0.523%, the Fold activation [12] was 1.84 and the P-value [13] was 4.11e-06. For the same molecule, the Fold activation [14] was 1.28 and the fold induction [15] was 2.24.
`CC(C)c1c(CN(C)C(C)Cc2ccccc2)n(C)n(-c2ccccc2)c1=O` (centres undefined) showed a Remaining activity [16] of 0.96, a P-value [17] of 0.00161 and a Relative activation [18] of 0.69%. The Fold activation [19] was 1.12, the Remaining activity [20] was 0.769 and the Fold activation [21] was 1.13. For the same molecule, the Fold activation [22] was 1.15.
For `N#Cc1ccc(-c2c3n(c4cccnc24)CCN(C2CC2)C3=O)cc1F`, the inhibition [23] was 61.8% and the inhibition [24] was 82.1%.
